According to ChEMBL document CHEMBL1795338, “Identification of pentacyclic triterpenes derivatives as potent inhibitors against glycogen phosphorylase based on 3D-QSAR studies” (Eur J Med Chem, 2011):

target: T1, Glycogen phosphorylase, muscle form (Oryctolagus cuniculus, UniProt P00489); experiment: Inhibition of rabbit muscle glycogen phosphorylase A assessed as release of phosphate from glucose-1-phosphate after 25 mins by microplate reader based method
T1 sequence (P00489 whole entry): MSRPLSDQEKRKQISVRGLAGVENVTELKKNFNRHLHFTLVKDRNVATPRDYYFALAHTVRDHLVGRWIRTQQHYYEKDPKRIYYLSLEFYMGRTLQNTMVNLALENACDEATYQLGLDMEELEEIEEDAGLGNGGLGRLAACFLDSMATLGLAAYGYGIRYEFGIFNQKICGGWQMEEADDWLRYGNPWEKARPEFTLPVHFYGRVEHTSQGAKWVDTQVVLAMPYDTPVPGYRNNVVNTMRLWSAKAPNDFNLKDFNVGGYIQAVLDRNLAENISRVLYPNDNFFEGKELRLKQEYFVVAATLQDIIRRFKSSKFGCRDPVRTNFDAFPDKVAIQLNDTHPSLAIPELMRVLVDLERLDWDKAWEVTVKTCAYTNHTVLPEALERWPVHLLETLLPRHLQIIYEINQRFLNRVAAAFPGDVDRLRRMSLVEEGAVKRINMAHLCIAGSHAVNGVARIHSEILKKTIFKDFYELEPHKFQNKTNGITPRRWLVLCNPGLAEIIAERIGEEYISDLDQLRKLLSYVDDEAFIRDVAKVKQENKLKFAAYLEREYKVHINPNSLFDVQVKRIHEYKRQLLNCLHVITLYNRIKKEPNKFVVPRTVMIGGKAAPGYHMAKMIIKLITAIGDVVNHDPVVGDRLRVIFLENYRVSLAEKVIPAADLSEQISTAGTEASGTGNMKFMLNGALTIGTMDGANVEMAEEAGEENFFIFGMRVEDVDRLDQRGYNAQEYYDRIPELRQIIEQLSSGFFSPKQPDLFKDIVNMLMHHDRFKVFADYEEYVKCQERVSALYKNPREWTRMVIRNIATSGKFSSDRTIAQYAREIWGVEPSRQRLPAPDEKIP

SMILES | IC50 [µM]
C[C@H]1[C@H](C)CC[C@]2(C(=O)OC3CC3)CC[C@]3(C)C(=CC[C@@H]4[C@@]5(C)C[C@@H](O)[C@H](O)C(C)(C)[C@@H]5CC[C@]43C)[C@H]12 | 91.2
C[C@H]1[C@H](C)CC[C@]2(C(=O)OCCN3CCCCC3)CC[C@]3(C)C(=CC[C@@H]4[C@@]5(C)C[C@@H](O)[C@H](O)[C@@](C)(CO)[C@@H]5CC[C@]43C)[C@H]12 | 132
C[C@H]1[C@H](C)CC[C@]2(C(=O)OCCN3CCOCC3)CC[C@]3(C)C(=CC[C@@H]4[C@@]5(C)C[C@@H](O)[C@H](O)[C@@](C)(CO)[C@@H]5CC[C@]43C)[C@H]12 | 173
COS(=O)(=O)[C@@H]1C[C@]2(C)[C@H]3CC=C4[C@@H]5[C@@H](C)[C@H](C)CC[C@]5(C(=O)OCc5ccccc5)CC[C@@]4(C)[C@]3(C)CC[C@H]2C(C)(C)[C@H]1O | 43.4
COC(=O)[C@@]1(C)[C@@H]2CC[C@]3(C)[C@H](CC=C4[C@@H]5[C@@H](C)[C@H](C)CC[C@]5(C(=O)O)CC[C@]43C)[C@@]2(C)C[C@@H](OC(C)=O)[C@@H]1OC(C)=O | 33
CC1(C)CC[C@]2(C(=O)O)CC[C@]3(C)C(=CC[C@@H]4[C@@]5(C)C[C@H](O)[C@H](O)[C@@](C)(CO)[C@@H]5CC[C@]43C)[C@@H]2C1 | 67.8
CC1(C)CC[C@]2(C(=O)OCc3ccccc3)CC[C@]3(C)C(=CC[C@@H]4[C@@]5(C)CC(=O)[C@H](O)C(C)(C)[C@@H]5CC[C@]43C)[C@@H]2C1 | 52.9
CC1(C)CC[C@]2(C(=O)OCc3ccccc3)CC[C@]3(C)C(=CC[C@@H]4[C@@]5(C)C/C(=N\O)[C@H](O)C(C)(C)[C@@H]5CC[C@]43C)[C@@H]2C1 | 179
CC1(C)CC[C@]2(C(=O)OCc3ccccc3)CC[C@]3(C)C(=CC[C@@H]4[C@@]5(C)C/C(=N\O)C(=O)C(C)(C)[C@@H]5CC[C@]43C)[C@@H]2C1 | 46.8
C[C@H]1[C@H](C)CC[C@]2(C(=O)OCc3ccccc3)CC[C@]3(C)C(=CC[C@@H]4[C@@]5(C)C/C(=N\O)C(=O)C(C)(C)[C@@H]5CC[C@]43C)[C@H]12 | 82.9
CC1(C)CC[C@]2(C(=O)OCc3ccccc3)CC[C@]3(C)C(=CC[C@@H]4[C@@]5(C)C/C(=N\OCc6ccccc6)C(=O)C(C)(C)[C@@H]5CC[C@]43C)[C@@H]2C1 | 61.3
C[C@H]1[C@H](C)CC[C@]2(C(=O)O)CC[C@]3(C)C(=CC[C@@H]4[C@@]5(C)Cc6nonc6C(C)(C)[C@@H]5CC[C@]43C)[C@H]12 | 66.3
CC1(C)CC[C@]2(C(=O)O)CC[C@]3(C)C(=CC[C@@H]4[C@@]5(C)Cc6cnn(-c7ccc(Cl)cc7)c6C(C)(C)[C@@H]5CC[C@]43C)[C@@H]2C1 | 242
CC1(C)CC[C@]2(C(=O)O)CC[C@]3(C)C(=CC[C@@H]4[C@@]5(C)Cc6cnn(-c7cc(F)cc(F)c7)c6C(C)(C)[C@@H]5CC[C@]43C)[C@@H]2C1 | 46.9
CC(C)c1ccc(-n2ncc3c2C(C)(C)[C@@H]2CC[C@]4(C)[C@H](CC=C5[C@@H]6CC(C)(C)CC[C@]6(C(=O)O)CC[C@]54C)[C@@]2(C)C3)cc1 | 69.6
Cc1ccc(-n2ncc3c2C(C)(C)[C@@H]2CC[C@]4(C)[C@H](CC=C5[C@@H]6CC(C)(C)CC[C@]6(C(=O)OCc6ccccc6)CC[C@]54C)[C@@]2(C)C3)cc1 | 106
CC(=O)O[C@@H]1C[C@]2(C)[C@H]3CC=C4[C@@H]5[C@@H](C)[C@H](C)CC[C@]5(C(=O)O)CC[C@@]4(C)[C@]3(C)CC[C@H]2C(C)(C)[C@H]1O | 37.7
CCCC(=O)O[C@@H]1C[C@]2(C)[C@H]3CC=C4[C@@H]5[C@@H](C)[C@H](C)CC[C@]5(C(=O)O)CC[C@@]4(C)[C@]3(C)CC[C@H]2C(C)(C)[C@H]1OC(=O)CCC | 78.7
C[C@H]1[C@H](C)CC[C@]2(C(=O)OCn3cccn3)CC[C@]3(C)C(=CC[C@@H]4[C@@]5(C)C[C@@H](O)[C@H](O)C(C)(C)[C@@H]5CC[C@]43C)[C@H]12 | 62.1
CCOC(=O)COC(=O)[C@]12CC[C@@H](C)[C@H](C)[C@H]1C1=CC[C@@H]3[C@@]4(C)C[C@@H](O)[C@H](O)C(C)(C)[C@@H]4CC[C@@]3(C)[C@]1(C)CC2 | 102
CCCOC(=O)[C@]12CC[C@@H](C)[C@H](C)[C@H]1C1=CC[C@@H]3[C@@]4(C)C[C@@H](O)[C@H](O)C(C)(C)[C@@H]4CC[C@@]3(C)[C@]1(C)CC2 | 82.5
CCCCOC(=O)[C@]12CC[C@@H](C)[C@H](C)[C@H]1C1=CC[C@@H]3[C@@]4(C)C[C@@H](O)[C@H](O)C(C)(C)[C@@H]4CC[C@@]3(C)[C@]1(C)CC2 | 92.1
C[C@H]1[C@H](C)CC[C@]2(C(=O)OCc3ccccc3)CC[C@]3(C)C(=CC[C@@H]4[C@@]5(C)C[C@@H](O)[C@H](O)C(C)(C)[C@@H]5CC[C@]43C)[C@H]12 | 41.2
CCOC(=O)[C@]12CC[C@@H](C)[C@H](C)[C@H]1C1=CC[C@@H]3[C@@]4(C)C[C@@H](O)[C@H](O)C(C)(C)[C@@H]4CC[C@@]3(C)[C@]1(C)CC2 | 46.7
C[C@H]1[C@H](C)CC[C@]2(C(=O)OCc3ccccc3)CC[C@]3(C)C(=CC[C@@H]4[C@@]5(C)C[C@H](O)[C@H](O)C(C)(C)[C@@H]5CC[C@]43C)[C@H]12 | 108
CC(=O)O[C@@H]1C[C@]2(C)[C@H]3CC=C4[C@@H]5[C@@H](C)[C@H](C)CC[C@]5(C(=O)O)CC[C@@]4(C)[C@]3(C)CC[C@H]2C(C)(C)[C@H]1OC(C)=O | 35
CCC(=O)O[C@@H]1C[C@]2(C)[C@H]3CC=C4[C@@H]5[C@@H](C)[C@H](C)CC[C@]5(C(=O)O)CC[C@@]4(C)[C@]3(C)CC[C@H]2C(C)(C)[C@H]1OC(=O)CC | 73.7
C[C@H]1[C@H](C)CC[C@]2(C(=O)OCc3ccccc3)CC[C@]3(C)C(=CC[C@@H]4[C@@]5(C)C[C@@H]6O[C@@H]6C(C)(C)[C@@H]5CC[C@]43C)[C@H]12 | 69.5
CCCC(=O)O[C@@H]1C[C@]2(C)[C@H]3CC=C4[C@@H]5[C@@H](C)[C@H](C)CC[C@]5(C(=O)O)CC[C@@]4(C)[C@]3(C)CC[C@H]2C(C)(C)[C@H]1O | 77.9
CC1(C)CC[C@]2(C(=O)O)CC[C@]3(C)C(=CC[C@@H]4[C@@]5(C)Cc6cnn(-c7ccccc7)c6C(C)(C)[C@@H]5CC[C@]43C)[C@@H]2C1 | 35.1

These reach a lower IC50. Values come first.

IC50 [µM] | SMILES
10 | CCCOC(=O)[C@@]1(C)[C@@H]2CC[C@]3(C)[C@H](CC=C4[C@@H]5[C@@H](C)[C@H](C)CC[C@]5(C(=O)O)CC[C@]43C)[C@@]2(C)C[C@@H](OC(=O)CCC)[C@@H]1OC(=O)CCC
28.2 | CC1(C)CC[C@]2(C(=O)O)CC[C@]3(C)C(=CC[C@@H]4[C@@]5(C)C/C(=N\O)[C@H](O)C(C)(C)[C@@H]5CC[C@]43C)[C@@H]2C1
26.1 | CC1(C)CC[C@]2(C(=O)O)CC[C@]3(C)C(=CC[C@@H]4[C@@]5(C)C/C(=N\O)C(=O)C(C)(C)[C@@H]5CC[C@]43C)[C@@H]2C1
22.3 | CC1(C)CC[C@]2(C(=O)OCc3ccccc3)CC[C@]3(C)C(=CC[C@@H]4[C@@]5(C)CC(=N\O)/C(=N\O)C(C)(C)[C@@H]5CC[C@]43C)[C@@H]2C1
8 | CC1(C)CC[C@]2(C(=O)OCc3ccccc3)CC[C@]3(C)C(=CC[C@@H]4[C@@]5(C)C/C(=N\OCc6ccc(Cl)cc6Cl)C(=O)C(C)(C)[C@@H]5CC[C@]43C)[C@@H]2C1
12.7 | CC1(C)CC[C@]2(C(=O)O)CC[C@]3(C)C(=CC[C@@H]4[C@@]5(C)CC6C=NOC6C(C)(C)[C@@H]5CC[C@]43C)[C@@H]2C1 (some centres undefined)
19.6 | CC1(C)CC[C@]2(C(=O)OCc3ccccc3)CC[C@]3(C)C(=CC[C@@H]4[C@@]5(C)CC6C=NOC6C(C)(C)[C@@H]5CC[C@]43C)[C@@H]2C1 (some centres undefined)
11.2 | CC1(C)CC[C@]2(C(=O)O)CC[C@]3(C)C(=CC[C@@H]4[C@@]5(C)Cc6nonc6C(C)(C)[C@@H]5CC[C@]43C)[C@@H]2C1
18.3 | Cc1ccc(-n2ncc3c2C(C)(C)[C@@H]2CC[C@]4(C)[C@H](CC=C5[C@@H]6CC(C)(C)CC[C@]6(C(=O)O)CC[C@]54C)[C@@]2(C)C3)cc1
11.2 | CC1(C)CC[C@]2(C(=O)OCc3ccccc3)CC[C@]3(C)C(=CC[C@@H]4[C@@]5(C)Cc6cnn(-c7ccc(Cl)cc7)c6C(C)(C)[C@@H]5CC[C@]43C)[C@@H]2C1
13.1 | COc1ccc(-n2ncc3c2C(C)(C)[C@@H]2CC[C@]4(C)[C@H](CC=C5[C@@H]6CC(C)(C)CC[C@]6(C(=O)OCc6ccccc6)CC[C@]54C)[C@@]2(C)C3)cc1
3.26 | CCCCCC(=O)O[C@@H]1C[C@]2(C)[C@H]3CC=C4[C@@H]5[C@@H](C)[C@H](C)CC[C@]5(C(=O)O)CC[C@@]4(C)[C@]3(C)CC[C@H]2C(C)(C)[C@H]1O
31.8 | C[C@H]1[C@H](C)CC[C@]2(C(=O)OCc3ccccc3)CC[C@]3(C)C(=CC[C@@H]4[C@@]5(C)C[C@@H](O)C(=O)C(C)(C)[C@@H]5CC[C@]43C)[C@H]12
5.1 | C[C@H]1[C@H](C)CC[C@]2(C(=O)O)CC[C@]3(C)C(=CC[C@@H]4[C@@]5(C)C[C@@H](OC(=O)c6ccccc6)[C@H](O)C(C)(C)[C@@H]5CC[C@]43C)[C@H]12
